Data taken from US6335360B1, “Tripeptidyl peptidase inhibitors” (Institut National de la Sante et de la Recherche Medicale …, priority 1997, dated 2002).
Where a name gives a salt, the structure may show the parent alone. Read-outs that look alike come from different tables or passages of the source.

How the values were obtained:
[1] = biological target: T1, membrane TPP II (tripeptidyl peptidase II) (Rattus norvegicus, UniProt Q64560); assay: Inhibition of AAF-Amc hydrolysis by cerebral membranes (inhibition of TPP II); format: biochemical; details: for Ki: rat cerebral cortex membranes; for activity (stated in words): stereoisomers not separated (2(R/S) mixture)
T1 construct: evaluated by measuring the activity of membrane TPP II; from tissue; host or cells: rat cerebral cortex membranes
T1 sequence (Q64560 whole entry): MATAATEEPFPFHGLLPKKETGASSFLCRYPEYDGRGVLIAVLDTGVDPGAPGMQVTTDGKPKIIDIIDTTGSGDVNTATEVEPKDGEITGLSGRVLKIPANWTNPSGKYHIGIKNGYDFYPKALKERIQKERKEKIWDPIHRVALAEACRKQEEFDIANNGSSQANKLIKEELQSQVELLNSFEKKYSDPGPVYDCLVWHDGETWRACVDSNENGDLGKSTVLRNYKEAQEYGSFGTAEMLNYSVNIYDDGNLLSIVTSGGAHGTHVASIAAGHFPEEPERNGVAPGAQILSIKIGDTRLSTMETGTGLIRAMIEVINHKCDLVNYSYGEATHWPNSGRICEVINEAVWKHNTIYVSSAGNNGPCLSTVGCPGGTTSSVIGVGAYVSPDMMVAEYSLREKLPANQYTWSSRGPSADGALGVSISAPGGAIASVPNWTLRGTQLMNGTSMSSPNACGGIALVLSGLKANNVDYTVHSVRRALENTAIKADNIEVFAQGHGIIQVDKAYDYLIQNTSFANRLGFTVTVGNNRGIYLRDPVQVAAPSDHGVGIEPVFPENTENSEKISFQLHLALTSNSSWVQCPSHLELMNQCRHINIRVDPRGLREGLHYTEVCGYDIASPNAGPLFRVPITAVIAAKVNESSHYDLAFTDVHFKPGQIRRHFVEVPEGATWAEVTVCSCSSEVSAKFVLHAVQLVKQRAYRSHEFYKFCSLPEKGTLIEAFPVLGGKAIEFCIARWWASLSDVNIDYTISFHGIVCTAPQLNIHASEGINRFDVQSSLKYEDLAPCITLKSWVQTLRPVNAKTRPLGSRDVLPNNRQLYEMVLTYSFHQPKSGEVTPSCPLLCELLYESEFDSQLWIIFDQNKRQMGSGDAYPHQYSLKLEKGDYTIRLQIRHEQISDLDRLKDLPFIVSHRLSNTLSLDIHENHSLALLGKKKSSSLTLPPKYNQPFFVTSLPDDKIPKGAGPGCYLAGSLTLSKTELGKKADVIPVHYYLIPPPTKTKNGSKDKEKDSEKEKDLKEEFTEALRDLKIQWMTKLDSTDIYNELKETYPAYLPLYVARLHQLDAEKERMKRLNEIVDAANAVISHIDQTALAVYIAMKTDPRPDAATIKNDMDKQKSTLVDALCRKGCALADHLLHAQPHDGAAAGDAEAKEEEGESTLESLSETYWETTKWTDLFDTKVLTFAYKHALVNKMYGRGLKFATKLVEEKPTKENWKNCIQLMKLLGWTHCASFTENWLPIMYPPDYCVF
Protocol: The potency of the compounds of the invention was evaluated by measuring the activity of membrane TPP II.
Membranes of rat cerebral cortex were obtained by centrifugation (200,000×g min) of a homogenate in 10 volumes of a 50 mM potassium phosphate buffer, pH 7.4.
The centrifugation pellet was carefully washed and taken up in a buffer containing 10% glycerol and 0.1% Brij 35 to obtain a concentration of 25 mg protein/ml.
After 25 minutes of preincubation, incubation is carried out in 0.1 ml of a buffer containing 0.1% Brij 35, […], 25 μg of membrane protein and 50 μm of substrate Ala-Ala-Phe-Amc (AAF-Amc). Liberation of 7-amino4-methylcoumarin (Amc) is evaluated by fluorimetry.

[2] = Table 2, comparative compounds known in the art, substrate AAF-Amc, read-out: Ki (nM), Inhibition of AAF-Amc Hydrolysis by Cerebral Membranes, comparative compound
[3] = Table 1, substrate Ala-Ala-Phe-Amc, Ki calculated from 50% inhibition concentration and Km 23 μM, read-out: Ki (nM), Inhibition of AAF-Amc Hydrolysis by Cerebral Membranes

SMILES | Ki [1, 3] [nM] | melting point [°C] | other results
CCCCNC(=O)C1Cc2cc(O)ccc2N1C(=O)[C@@H](N)CC (mixture of isomers) [C.C.4, 1-(2(S)-aminobutyryl)-5-hydroxyindoline-2(R/S)-carboxylic acid n-butylamide, reference compound] | – | – | Ki [1, 2]: 6.6 nM
CC[C@H](N)C(=O)N1c2ccc(Cl)cc2C[C@H]1C(=O)NCCCl.O=C(O)C(F)(F)F [Example 2, 1-(2(S)-Aminobutyryl)-5-chloroindoline-2(S)-carboxylic acid 2-chloroethylamide trifluoroacetate] | 1.7 | 80 to 88 | –
CCCCNC(=O)[C@H]1Nc2ccc3ccccc3c2C1C(=O)[C@@H](N)CC.O=C(O)C(F)(F)F (stereo partly shown) | – | 76 to 88 | –
CCCCNC(=O)[C@@H]1Cc2cc(Cl)ccc2N1C(=O)[C@@H](N)CC [C.C.1, 1-(2(S)-aminobutyryl)-5-chloroindoline-2(S)-carboxylic acid n-butylamide, reference compound] | – | – | Ki [1, 2]: 2.5 nM
CC[C@H](N)C(=O)N1c2ccc(Cl)cc2C[C@H]1C(=O)NCC(F)(F)F.O=C(O)C(F)(F)F [Example 1, 1-(2(S)-aminobutyryl)-5-chloroindoline-2(S)-carboxylic acid (2,2,2-trifluoroethyl)amide trifluoroacetate] | 0.4 | 34 to 35 | –
CC[C@H](N)C(=O)N1c2ccc3c(c2CC1C(=O)NCC(F)(F)F)OCO3.O=C(O)C(F)(F)F (mixture of isomers) | – | 89 to 98 | –
CC[C@H](N)C(=O)N1c2cccc(Cl)c2CC1C(=O)NCC(F)(F)F.O=C(O)C(F)(F)F (mixture of isomers) [Example 7, 1-(2(S)-aminobutyryl)-4-chloroindoline-2(R/S)-carboxylic acid (2,2,2-trifluoroethyl)amide trifluoroacetate] [listing 1 of 2 here] | – | 104 to 106 | –
CC[C@H](N)C(=O)N1c2cccc(OC)c2C[C@H]1C(=O)NCC(F)(F)F.O=C(O)C(F)(F)F | – | 125 to 149 | –
CC[C@H](N)C(=O)N1c2cccc(F)c2CC1C(=O)NCC(F)(F)F.O=C(O)C(F)(F)F (mixture of isomers) [Example 8, 1-(2(S)-aminobutyryl)-4-fluoroindoline-2(R/S)-carboxylic acid (2,2,2-trifluoroethyl)amide trifluoroacetate] [listing 1 of 2 here] | – | 57.5 to 58.5 | –
CC[C@H](N)C(=O)N1c2ccccc2C[C@H]1C(=O)NCCSC.O=C(O)C(F)(F)F [Example 3, 1-(2(S)-aminobutyryl)-indoline-2(S) carboxylic acid (2-methylthioethyl)amide trifluoroacetate] | – | 59.5 to 60.5 | –
CC[C@H](N)C(=O)N1c2cccc(Cl)c2CC1C(=O)NCC(F)(F)F.O=C(O)C(F)(F)F (mixture of isomers) [Example 7, 1-(2(S)-aminobutyryl)-4-chloroindoline-2(R/S)-carboxylic acid (2,2,2-trifluoroethyl)amide trifluoroacetate] [listing 2 of 2 here] | 0.56 | – | activity (stated in words) [1]: useful activity
CC[C@H](N)C(=O)N1c2cccc(F)c2CC1C(=O)NCC(F)(F)F.O=C(O)C(F)(F)F (mixture of isomers) [Example 8, 1-(2(S)-aminobutyryl)-4-fluoroindoline-2(R/S)-carboxylic acid (2,2,2-trifluoroethyl)amide trifluoroacetate] [listing 2 of 2 here] | 0.36 | – | activity (stated in words) [1]: useful activity
CCCCNC(=O)C1Cc2cc(OC)ccc2N1C(=O)[C@@H](N)CC (mixture of isomers) [C.C.5, 1-(2(S)-aminobutyryl)-5-methoxyindoline-2(R/S)-carboxylic acid n-butylamide, reference compound] | – | – | Ki [1, 2]: 8 nM
CC[C@H](N)C(=O)N1c2ccc(Cl)c(Cl)c2CC1C(=O)NCC(F)(F)F.O=C(O)C(F)(F)F (mixture of isomers) | – | 68 to 78 | –
CC[C@H](N)C(=O)N1c2cccc(C)c2CC1C(=O)NCC(F)(F)F.O=C(O)C(F)(F)F (mixture of isomers) | – | 109 to 122 | –
CC[C@H](N)C(=O)N1c2ccc(O)cc2CC1C(=O)NCC(F)(F)F (mixture of isomers) [Example 6, 1-(2(S)-aminobutyryl)-5-hydroxyindoline-2(R/S)-carboxylic acid (2,2,2,-trifluoroethyl)amide trifluoroacetate] | 2.8 | – | Ki ([1]; Table 2, compounds of the invention, substrate AAF-Amc, read-out: Ki (nM), Inhibition of AAF-Amc Hydrolysis by Cerebral Membranes, compound of the invention): 2.8 nM
CC[C@H](N)C(=O)N1c2ccc(OC)c(OC)c2CC1C(=O)NCC(F)(F)F.O=C(O)C(F)(F)F (mixture of isomers) | – | 79 to 87 | –
CC[C@H](N)C(=O)N1c2ccc(OC(F)(F)F)cc2CC1C(=O)NCC(F)(F)F (mixture of isomers) [Example 10, 1-(2(S)-aminobutyryl)-5-trifluoromethoxyindoline-2(R/S)-carboxylic acid (2,2,2-trifluoroethyl)amide trifluoroacetate] | 1.1 | – | –
CC[C@H](N)C(=O)C1c2c(ccc3ccccc23)N[C@@H]1C(=O)NCC(F)(F)F.O=C(O)C(F)(F)F (stereo partly shown) | – | 64 to 78 | –
CC[C@H](N)C(=O)N1c2ccccc2C[C@H]1C(=O)NCC1CC1.O=C(O)C(F)(F)F [Example 4, 1-(2(S)-aminobutyryl)-indoline-2(S)-carboxylic acid N-(cyclopropylmethyl)amide trifluoroacetate] | – | 57 to 74 | –
CC[C@H](N)C(=O)N1c2ccc(OC)cc2CC1C(=O)NCC(F)(F)F (mixture of isomers) [Example 9, 1-(2(S)-aminobutyryl)-5-methoxyindoline-2(R/S)-carboxylic acid (2,2,2-trifluoroethyl)amide trifluoroacetate] | 0.7 | – | –
CC[C@H](N)C(=O)N1c2ccc(OC)cc2CC1C(=O)NCC(F)(F)F.O=C(O)C(F)(F)F (mixture of isomers) [Example 9, 1-(2(S)-aminobutyryl)-5-methoxyindoline-2(R/S)-carboxylic acid (2,2,2-trifluoroethyl)amide trifluoroacetate] | – | 63.5 to 66 | –
CCCCNC(=O)C1Cc2c(ccc(Cl)c2Cl)N1C(=O)[C@@H](N)CC.O=C(O)C(F)(F)F (mixture of isomers) | – | 115 to 124 | –
